{"source": "patent US8097585B2", "about": "“Methods of treating inflammation by administration of heme oxygenase-1 and products of heme degradation” (priority 2002, dated 2012)", "key": {"[1]": {"test_system": "fulminant hepatitis", "experiment": "TNF-α/D-Galactosamine hepatitis model, serum ALT", "format": "in vivo, mice (C57BL/6J)", "protocol": "Male mice (C57BL/6J) were administered biliverdin ([…], i.p.) 16 hours and 1 hour prior to i.p. injection of a cocktail including 0.3 ug/mouse TNF-α (mouse TNF-α; Gibco) and 250 mg/kg, i.p. D-Galactosamine (Sigma), which induces fulminant hepatitis within 6-10 hours. Control mice received PBS vehicle. Serum samples were taken via cardiac puncture 6-8 hours later and analyzed for alanine aminotransferase (ALT) per an ALT assay kit from Sigma Chem. Co. following the manufacturer's directions."}, "[2]": {"test_system": "jejunal circular muscle strips", "experiment": "Jejunal circular muscle contractility after small intestinal transplantation (organ bath)", "format": "in vivo, LEW rats", "protocol": "Small Intestinal Transplantation. Orthotopic small intestinal transplantation (SITx) was performed in syngeneic Lewis rats. SITx with caval drainage was performed using a previously described procedure (Murase et al., in Handbook of Animal Models in Transplantation Research, Cramer et al., Eds. CRC Press, Boca Raton, Fla., pp. 203-213 (1994)). […] The graft was perfused via the aortic segment with 5 ml chilled Ringer's lactate solution, and the intestinal lumen was irrigated with 20 ml of cold saline solution containing 0.5% neomycin-sulfate (Sigma, St. Louis, Mo.). End-to-side anastomoses between the graft aorta and the recipient infrarenal aorta, and between the graft portal vein and recipient vena cava, were performed with 10-0 Novafil™ suture. The cold ischemic time was 1 hour. The entire recipient intestine was removed and the enteric continuity was restored by proximal and distal end-to-end intestinal anastomoses. Recipient animals were given 20 mg/day prophylactic cefamandole nafate for 3 postoperative days. Transplanted recipients were given water 3 hours after surgery, and were fed 24 hours after surgery.\nMotility Studies. The effect of administration of biliverdin on treatment on intestinal dysmotility in transplanted grafts was assessed both in vitro and in vivo. […] In vitro circular muscle mechanical activity was measured as previously described (Eskandari et al., Am. J. Physiol. 273(3 Pt 1):G727-34, 1997). Rats were anesthetized and killed by exsanguination 24 hours post-operatively. A segment of mid-jejunum was pinned in a Sylgaard™ lined dissecting dish containing pre-oxygenated Krebs-Ringer-bicarbonate buffer (KRB; in mM: 137.4 Na^+, 5.9 K^+, 2.5 Ca^2+, 1.2 Mg^2+, 134 Cl^−, 15.5 HCO3^−, 1.2 H2PO4^−, and 11.5 glucose) that was equilibrated with 97% O2/3% CO2. […] Contractile activity was calculated by integrating the area under the trace, normalized by converting the weight and length of the strip to square millimeters of tissue (1.03 mg/mm^2), and reported as g/s/mm^2. […]"}, "[3]": {"test_system": "IL-1β", "experiment": "Real time RT-PCR of graft muscularis after SITx, IL-1β", "format": "in vivo, LEW rats", "conditions": "BV 50 mmol/kg i.p. donor and recipient; 4 hours; versus saline-treated graft", "protocol": "Small Intestinal Transplantation. Orthotopic small intestinal transplantation (SITx) was performed in syngeneic Lewis rats. SITx with caval drainage was performed using a previously described procedure (Murase et al., in Handbook of Animal Models in Transplantation Research, Cramer et al., Eds. CRC Press, Boca Raton, Fla., pp. 203-213 (1994)). […] The graft was perfused via the aortic segment with 5 ml chilled Ringer's lactate solution, and the intestinal lumen was irrigated with 20 ml of cold saline solution containing 0.5% neomycin-sulfate (Sigma, St. Louis, Mo.). […]\nSYBR green real time RT-PCR. The effects of administration of biliverdin on transplant-induced pro-inflammatory and anti-inflammatory gene expression were assessed in muscularis extracts by RT-PCR Biliverdin ([…], i.p.) was administered to both the donor and recipient three hours preoperatively. […] Equal aliquots (5 μg) of total RNA from each sample were quantified by spectrophotometry (wavelength […]) and aliquoted at a concentration of 40 ng/μl. Peak mRNA expression was quantified in duplicate by SYBR Green two-step, real-time RT-PCR. […] Real-time PCR data were plotted as the ΔRn fluorescence signal versus the cycle number. […] Quantification of mRNA expression was normalized to GAPDH and calculated relative to control using the comparative CT method (Schmittgen et al., J. Biochem. Biophys. Methods 46(1-2):69-8, 2000). […]"}}, "note": "“Also recorded” adds a separate entry of the source. Structures can show the parent of a compound that is named as a salt."}
{"smiles": "C=CC1=C(C)/C(=C/C2=NC(=C\\c3[nH]c(/C=C4\\NC(=O)C(C)=C4C=C)c(C)c3CCC(=O)O)/C(CCC(=O)O)=C2C)NC1=O", "note": "[biliverdin, biliverdin dihydrochloride]", "values": [{"measurement": "serum ALT", "setting": "[1]; 6-8 hours after TNF-α/D-Galactosamine, control about 1000, normal 20-30", "result": "~100", "unit": "IU/ml"}, {"measurement": "reduction of serum ALT levels compared to vehicle treated controls", "setting": "[1]; biliverdin 50 mmol/kg i.p. 16 hours and 1 hour prior to TNF-α/D-Galactosamine", "result": "more than 90%"}, {"measurement": "spontaneous muscle contractile activity", "setting": "[2]; control (unoperated) animals treated with BV", "result": "no change"}, {"measurement": "spontaneous contractile activity", "setting": "[2]; grafts in recipients treated with BV, compared to untreated transplants, 24 hours", "result": "significantly greater"}, {"measurement": "bethanechol-stimulated muscle contractility", "setting": "[2]; transplanted animals treated with BV versus untreated graft muscles, 24 hours, listed as BV, dihydrochloride", "result": "significantly improved; also recorded: Significant improvement"}, {"measurement": "reduction of IL-1b mRNA expression", "setting": "[3]", "result": 30, "unit": "%"}]}
